Test results from ChEMBL document CHEMBL3507680, “University of Dundee, Gates Library screen for HepG2 cell viability”.

Test: Human HepG2 cell viability assay in 384 well format
Format: toxicity, cell-based
Parameters: dose 125 nL, time 70.5 hour; cytotoxicity at 70.5 h: concentration not given beside the values
Conditions: HepG2 cells, read-out: Inhibition

SMILES | cytotoxicity at 70.5 h [%]
O=C(O)C1(Cc2ccccc2F)CCCN(c2ncnc3[nH]ccc23)C1 (configuration not stated) | -0.879
COc1ncccc1C(=O)N1CCCC1c1nc(-c2ccccc2)no1 (configuration not stated) | -5.54
c1cncc(-c2ccc3c(c2)CCC32CCN(Cc3nccs3)CC2)c1 | -2.27
COCC1CN(C(=O)Nc2cc(Cl)ccc2F)CCO1 (configuration not stated) | -8.58
CC(=O)N1CCC2(CCN(C(=O)c3cccc(C(F)(F)F)c3)CC2)C1 | 7.98
CC(Cn1cccn1)NC(=O)N(C)Cc1ccc(C(N)=O)cc1 (configuration not stated) | 37.9
O=C(CCN1CCOC(C(F)(F)F)C1)NCc1ccccc1Cl (configuration not stated) | 15.4
O=C(Nc1ccccc1)[C@H]1C[C@@H]2CN(S(=O)(=O)C3CC3)C[C@H]1O2 | -14.4
O=C(CC[C@@H]1CCCN2CCCC[C@H]12)NCCc1nc(O)cc(O)n1 | -5.7
Cc1cnc(CNC(=O)[C@@H]2CC[C@@H]3[C@@H](CCN3Cc3ccco3)O2)cn1 | -11.9
CCn1ncc2c1CN(C(=O)Cc1cccs1)CC2COC (configuration not stated) | -7.83
CC(C)c1nnc(CN(C)Cc2ccccc2-c2ccccc2)o1 | -6.61
NC(=O)C1CCN(c2nccc(-c3c[nH]nc3C3CCCCC3)n2)CC1 | -4.42
NC(=O)Nc1cccc(Oc2ccccn2)c1 | -4.42
CCN(CC1CCOC1)C(=O)Nc1ccc(-n2cncn2)nc1 (configuration not stated) | -9.69
CC(C)c1nccn1C1CCCN(C(=O)CCc2cnn(C)c2)C1 (configuration not stated) | -10.7
c1ccc(CCc2n[nH]c(C3CCOC3)n2)cc1 (configuration not stated) | -10.1
Cc1cc(NC(=O)NCC(c2ccc(C)o2)N2CCOCC2)n(C)n1 (configuration not stated) | 21
Cc1ccsc1CNC(=O)CSc1nnc[nH]1 | -11.1
CC(c1ccc2c(c1)OCCO2)N(C)C(=O)c1ccnnc1 (configuration not stated) | -5.69
COc1ccccc1OCCC(=O)NC1CCc2nc(C)cn2C1 (configuration not stated) | -3.16
O=C(NCC(O)c1cccs1)c1ccco1 (configuration not stated) | -10.6
O=C(Cc1cc2c(cc1Br)OCCO2)NC1CCS(=O)(=O)C1 (configuration not stated) | 7.44

SMILES | cytotoxicity at 70.5 h [%]
COC1CCN(C(=O)COC(C)=O)CC(=O)N(C)c2ccccc21 (configuration not stated) | -3.04
Cc1cccnc1CNCC1(O)CCCN(CC(C)(C)C)C1=O (configuration not stated) | -4.51
Cc1nc(C)c(CNC[C@@]2(COc3cccnc3)C[C@@H](O)[C@@H](O)C2)s1 | -4.67
Cc1ccc(CN2CCC3(CC2)C(=O)N(CC(C)C)CCN3C)o1 | -10.1
CCN1CCCC1Cn1ccc2ccc(C(=O)OC)cc2c1=O (configuration not stated) | -8.61
CCOc1ccc(C(=O)NC2CCN(c3ncccn3)CC2)cc1C | -0.65
C[C@H]1C[C@@H]2CCN(CC3CCOCC3)C[C@H]2O1 | -7.97
COCc1nc(C(=O)N(Cc2ccccc2)CC(C)C(=O)O)cs1 (configuration not stated) | -4.63
Cc1cc(CNC(=O)Cc2c(C)nc3cc(=O)[nH]n3c2C)no1 | -4.77
CS(=O)(=O)N1CC[C@H]2OCC[C@@]2(C(=O)NCC2CC2)C1 | -7.08
Cc1nc(C)n(CC2CCCN(CCOc3ccccc3C#N)C2)n1 (configuration not stated) | 18.8
c1ccc(-c2nnc3sc(CCN4CCCCCC4)nn23)cc1 | -11.1
Cc1ccc(N2CC[C@H]3O[C@@H](C(=O)NCc4ccco4)CC[C@H]32)nn1 | -4.81
CCn1cc(S(=O)(=O)N2CCC(C)CC2)c(C)n1 | -14
CCSc1ncc(-c2nccn2CCN(C)C)cn1 | 8.9
CCN(CC1CN(Cc2ncc(C)o2)CCO1)c1cccnn1 (configuration not stated) | -2.43
CCN(CC)C(=O)C1CCC(=O)N(CCc2cccc(F)c2)C1 (configuration not stated) | 19.7
O=C(c1ccncc1)N1CCN(Cc2cccnc2)c2ncccc2C1 | -8.91
CCN(CC)[C@@H]1CN(Cc2nccn2C)[C@@H]2CCCO[C@H]12 | -3.21
CCN1C(=O)CC(c2cnn(C)c2)C12CCN(C(=O)c1ccc[nH]1)CC2 (configuration not stated) | -1.7
COc1cccc(S(=O)(=O)CCN2CCC3(CC2)OCCO3)c1 | -18.5
Cc1noc(-c2c[nH]nc2C2CCCN2C(=O)c2ccccc2)c1C (configuration not stated) | -4.46
Cc1ccc(OCCN(C)Cc2nc3c(cnn3C)c(=O)[nH]2)cc1 | -8.39

SMILES | cytotoxicity at 70.5 h [%]
O=S(=O)(c1cccnc1)N1C[C@@H]2CC[C@H](C1)N(Cc1ccccn1)C2 | -5.11
CCN(CC)C(=O)CN1CCc2c(nc(C3CCNCC3)nc2NC)C1 | -8.61
Cc1ccc(C)c(C(C)NC(=O)N2CCC(n3cncn3)CC2)c1 (configuration not stated) | -3.74
O=C1CC2(CCCCN2C(=O)c2ccco2)CN1c1cccnc1 (configuration not stated) | 15.4
CC(=O)c1c(C)nn(S(=O)(=O)c2ccc(F)cc2)c1C | 1.95
Cc1ccc(Cn2nc(C)c3c(C(=O)O)c(Cl)c(C4CC4)nc32)cc1 | -4.45
O=S(=O)(c1ccccc1)N1CCCC1c1cc[nH]n1 (configuration not stated) | -8.7
CC1CCCN(c2ncc(-c3ccccc3F)c(-c3nccn3C)n2)C1 (configuration not stated) | -12.5
CCCN1Cc2nc(N3CCCC3)ncc2C1=O | -5.27
COCc1ncn2c1CN(C(=O)c1ccco1)CC2 | 1.28
O=C(CCC1CCN(C(=O)c2cc[nH]c2)CC1)NCc1cccc(Cl)c1 | -9.67
CC(C)c1noc(CS(=O)(=O)CC(=O)NCCOc2ccccc2)n1 | -13.7
O=C(N[C@@H]1CN(C2CCCC2)C[C@@H]2CCCO[C@@H]21)c1cnccn1 | -12.5
CCc1nc2n(n1)CC(NCc1nc(C)c(C)o1)CC2 (configuration not stated) | -5.85
Cc1sc(Br)cc1S(=O)(=O)NCCCN | -8.71
CN1CCN(Cc2ccccc2CNC(=O)c2ccc(Br)cc2F)CC1 | -4.3
Fc1cccnc1Oc1cc(F)c(CN2CCCC2)c(F)c1 | -13.4
Cc1ccc(CN2C[C@@H]3[C@@H](C(=O)NCC4CC4)CCS(=O)(=O)[C@@H]3C2)cc1 | -1.55
C=C(C)CN(CC)Cc1nc(C)no1 | -6.47
Cc1ccccc1NCc1nc2n(n1)CCCCC2 | 0.338
Cc1csc2c(=O)n3c(nc12)CCN(C(=O)c1ccccn1)CC3 | -0.0193
Cc1cnc(CN2CCCC(c3cc(C(N)=O)[nH]n3)C2)o1 (configuration not stated) | 9.27
CC(C)CC(NC(=O)c1ccn(C)c(=O)c1)c1ccccc1 (configuration not stated) | 33.2

SMILES | cytotoxicity at 70.5 h [%]
Cc1ccc(CN(C(=O)NCCNC(=O)c2cccnc2)C(C)C)o1 | 14.6
O=C(CCn1cncn1)N1CCCC1c1noc(C2CC2)n1 (configuration not stated) | -7.06
Cc1noc(CNc2ccccc2CC(=O)N(C)C)n1 | -4.56
Cc1nc(-c2cc(C(=O)NC(C)(C(=O)O)C(C)C)co2)cs1 (configuration not stated) | -7.3
O=C(CN1CCCS(=O)(=O)CC1)NCc1ccccc1F | -8.4
Cn1nc(CN2CCCCC(N)C2)c2c(Cl)cccc21 (configuration not stated) | 36.9
Cc1nn(C)c2nc(N(Cc3nccs3)C3CC3)sc12 | -15.9
CC(C(=O)Nc1ccccc1Sc1ccccc1)S(C)(=O)=O (configuration not stated) | -3.46
CC(C)(C)c1nnc(CN2CCCC(c3cc(C(N)=O)[nH]n3)C2)o1 (configuration not stated) | 10.9
O=S(=O)(C1CC1)N1CCOC2(CCCN(c3cccc(F)c3)C2)C1 (configuration not stated) | -3.57
Cn1ccc(C(=O)N2CCN(Cc3ccccc3F)CC2)cc1=O | -0.663
O=C(c1ccc(Br)o1)N1CCCC(n2cncn2)C1 (configuration not stated) | -3.18
CC(=O)N1N=C(c2ccccc2)OC1C(=O)NCCc1ccc(O)cc1 (configuration not stated) | -1.25
OCCN1CCC(F)(F)C2(CCN(c3cnccn3)C2)C1 (configuration not stated) | -5.87
Clc1ccc(CN2CCCC(Cn3cncn3)C2)c2ncccc12 (configuration not stated) | -8.25
CCc1noc(C2CCN(C(=O)CCn3nc(C)cc3C)CC2)n1 | -12.9
O=C(C1COc2ccccc2C1)N(CCO)Cc1ccccc1 (configuration not stated) | -1.94
Cc1cnc(C(=O)N2C[C@H]3CN(Cc4nccs4)C[C@H]3C2)cn1 | -5.82
CC(C)c1n[nH]c(C2CN(CCCS(C)(=O)=O)CCO2)n1 (configuration not stated) | -4.2
COc1ccc(C(=O)N2C[C@@H](CN3CCCCC3)[C@@H](CO)C2)cc1Cl | -1.81
CCOCCCC(=O)NC1CCN(C(C)c2ccccc2)CC1 (configuration not stated) | -5.8
CCc1nc(N)sc1C(=O)N1CCCC(COc2cccc(C)c2)C1 (configuration not stated) | -0.442
O=C(c1cc2cc(F)ccc2[nH]1)N1CCC(Nc2ccc(F)cc2)CC1 | -4.25

SMILES | cytotoxicity at 70.5 h [%]
COc1ccc(C2CCCN2C(=O)Nc2ccc(OC)nc2)cc1 (configuration not stated) | -7.84
O=C(COc1ccc2c(c1)CCC2)N1CCCC(n2cccn2)C1 (configuration not stated) | 15.3
CC(=O)NC(CC(=O)Nc1ccc(C)cn1)c1ccccc1 (configuration not stated) | -6.79
COc1nc2ccccc2cc1CN1CCCC(CNC(C)=O)C1 (configuration not stated) | -4.14
CS(=O)(=O)NCCCNCc1cc(F)ccc1Br | -2.01
O=C(c1cccnc1)N1C[C@@H]2OCC(=O)N(Cc3cccnc3)[C@@H]2C1 | -3.03
COCCOCC(=O)Nc1cccc(CN(C)C(C)=O)c1 | 27.5
Cc1csc(C2CCCCN2C(=O)CN(C)Cc2ccccc2)n1 (configuration not stated) | -8.36
Cc1ccc(N2CCO[C@H]3CN(Cc4ccc(F)cc4)C[C@H]32)nn1 | -7.45
CCc1cc(CNC(=O)c2cc(NC(=O)C(C)C)ccc2Cl)[nH]n1 | -9.06
Cc1cnn(CC2CN(Cc3nnc(C(C)C)o3)CCO2)c1 (configuration not stated) | -6.07
CC(C)(C)n1ncc2c1NC(=O)CSC2c1ccc2c(c1)OCO2 (configuration not stated) | 2.42
c1cc(-c2ccn(CCN3CCCC3)n2)cc(-c2nccs2)c1 | -6.38
Cc1nn(C)c(C)c1NC(=O)CNc1ccc(F)c(C(F)(F)F)c1 | -2.51
O=C(c1ncccn1)N1C[C@H]2CCC[C@@]2(COCC2CCOCC2)C1 | -15.9
Cc1cc2c(=O)n3c(nc2s1)CCN(Cc1[nH]cnc1C)CC3 | -9.2
Cc1cc(-c2ccc(=O)n(CCNC(=O)C3CCC3)n2)c(C)o1 | 15.6
COCCN(Cc1cnn(C)c1)Cc1ccc(C)o1 | -9.85
CNC(=O)Cc1cc2nccc(-c3c(OC)cccc3OC)n2n1 | -7.19
CNC(=O)C1CCCN(C(=O)c2ccccc2-n2cc(CN)cn2)C1 (configuration not stated) | 2.43
